Results reported in patent US20150126609A1, “PHARMACEUTICAL COMPOSITION COMPRISING 11-DEOXY -PROSTAGLANDIN COMPOUND AND METHOD FOR STABILIZING THE COMPOUND” (R-TECH UENO, LTD., priority 2007, published 2015).

Key:
[1] = Stability of Compound 1 in vehicle stored at 55° C., amount determined by HPLC; format: physicochemical; details: for day 10, percentage based on the theoretical amount (250 μg/g): stored at 55° C.
Description: Compound 1 was dissolved in a vehicle shown in table 1 below to give 250 μg/g solution. Then, the solution was put in a hard grass container and heated at 55° C. The precise amount of Compound 1 in the solution was determined by means of HPLC (day 0). The container was kept at 55° C. for 10 days and after that the precise amount of the compound 1 was determined by means of HPLC (day 10).
The determination of the amount of the compound was carried out as follows. About 0.2 g of the sample was mixed with exactly 2 mL of internal standard solution and then with a dissolving agent shown in Table 1 to give 5 ml of sample solution. About 5 mg of the reference standard compound 1 was weighted precisely and added with acetonitrile to give exactly 50 mL solution. Exactly 1 ml of the solution was obtained and added with exactly 4 mL of the internal standard solution, and then added with the dissolving agent to give 10 mL of reference solution.
The fluorescent labeling agent was added to the respective solution, stirred and stood at room temperature for more than 30 minutes. After that, 2% acetic acid in acetonitrile was added to the solution, stirred and reacted at room temperature for more 30 minutes to give the sample and standard solutions. Then, the respective solution in an amount that theoretically gives 3.6 ng of compound 1 was loaded on the column and analyzed under the condition as follows:
(§1) Column: 5 mm×25 cm stainless steel column packed with octadecylsilane treated silica gel for HPLC (5 μm)
Mobile phase: mixture of acetonitrile (HPLC grade) and perchlorate buffer
(§2) Detector: spectrophotofluorometer
According to the same manner as described in Example 1, stability of the compound 1 in various vehicles was measured.

[2] = Stability of Compound 1 in soft gelatin capsules (sugar alcohol plasticizer) on storage, amount determined by HPLC; format: physicochemical
Description: Sugar alcohol solution derived from corn starch 60 parts by weight was added in an appropriate amount of water, stirred and heated. Then, gelatin 100 parts by weight was added thereto to give gelatin solution. Compound 1 was dissolved in medium chain fatty acid triglyceride (USP/NF grade) to give a liquid mixture containing 120 μg/g of compound 1. The gelatin solution and the liquid mixture were loaded on a soft capsule forming and filling machine to give capsule containing the liquid mixture, and dried to give soft gelatin capsule with an appropriate hardness.
The soft gelatin capsules obtained in the formulation example were kept at 40° C. for 6 months or at 55° C. for one month. After that, 20 capsules were swelled with purified water and ethyl acetate (HPLC grade) 10 ml was added thereto. The capsule was then cut opened and the liquid contained therein was obtained. 1 ml of the internal standard solution per 100 μg of theoretical amount of compound 1 was added to the liquid, and ethyl acetate (HPLC grade) was added so that the theoretical concentration of compound 1 was 10 μg/mL to give a sample solution.
On the other hand, about 0.025 g of standard Compound 1 was precisely weighted and added with ethyl acetate (HPLC grade) to give exactly 100 mL solution. 2 mL of the solution was measured, exactly 5 mL of the internal standard solution was added thereto and ethyl acetate (HPLC grade) was added so that the total amount was 50 mL to give the standard compound 1 solution.
The fluorescent labeling agent was added to the sample and standard solutions, stirred and reacted at room temperature.
The respective solution in an amount that theoretically gives 3.6 ng of compound 1 was loaded on the column and analyzed under the condition as follows: HPLC analysis condition:
as §1
Mobile phase: mixture of acetonitrile HPLC grade: methanol HPLC grade: ammonium acetate (0.05 mol/L)
as §2
The amount of the compound 1 in the sample solution was determined by using a one point calibration curve.

In the case of CCCCC(F)(F)C(=O)CCC1CCC(=O)C1CCCCCCC(=O)O (stereo not shown) [Compound 1, 11-deoxy-13,14-dihydro-15-keto-16,16-difluoro PGE1], the “stability on admixing with a fatty acid ester” value ([1]; admixed with a fatty acid ester such as glyceride, 55° C., 10 days) is reported as “significantly improved”, the “stability in polyol, sugar, sugar alcohol, polyethylene glycol, polysorbate 80 and fatty acid” value ([1]; in polyol such as glycerine, sugar, sugar alcohol, polyethylene glycol, polysorbate 80, and fatty acid, 55° C., 10 days) is reported as “poor” and the “day 0, percentage based on the theoretical amount (250 μg/g)” value (“day 0, percentage based” for short) ([1]; no vehicle (compound 1 only), 55° C.) is reported as 95.4%. For the same molecule, the “day 10, percentage based on the theoretical amount (250 μg/g)” value (from here on “day 10, percentage based”) ([1]; no vehicle (compound 1 only)) was 82.8%, the “day 0, percentage based” value ([1]; vehicle Macrogol 400 (polyethyleneglycol), 55° C.) was 92.2% and the “day 10, percentage based” value ([1]; vehicle Macrogol 400 (polyethyleneglycol)) was 80.7%. The “day 0, percentage based” value ([1]; vehicle concentrated glycerin, 55° C.) was 20.9%, the “day 10, percentage based” value ([1]; vehicle concentrated glycerin) was 20.0% and the “day 0, percentage based” value ([1]; vehicle corn oil, 250 μg/g solution, 55° C.) was 93.1%. For the same molecule, the “day 10, percentage based” value ([1]; vehicle corn oil, 250 μg/g solution) was 94.8%, the “day 0, percentage based” value ([1]; vehicle glycerine fatty acid ester (Inwitor 742), 250 μg/g solution, 55° C.) was 93.3% and the “day 10, percentage based” value ([1]; vehicle glycerine fatty acid ester (Inwitor 742), 250 μg/g solution) was 96.4%. The “day 0, percentage based” value ([1]; vehicle hydrogenated maltose starch syrup, 55° C.) was 5.1%, the “day 10, percentage based” value ([1]; vehicle hydrogenated maltose starch syrup) was 3.5% and the “day 0, percentage based” value ([1]; vehicle isopropyl palmitate, 250 μg/g solution, 55° C.) was 93.9%. The “day 10, percentage based” value ([1]; vehicle isopropyl palmitate, 250 μg/g solution) was 96.7%, the “day 0, percentage based” value ([1]; vehicle medium chain fatty acid triglyceride (Miglyol 812N), 250 μg/g solution, 55° C.) was 94.1% and the “day 10, percentage based” value ([1]; vehicle medium chain fatty acid triglyceride (Miglyol 812N), 250 μg/g solution) was 97.0%. The “day 0, percentage based” value ([1]; vehicle oleic acid, 55° C.) was 61.9%, the “day 10, percentage based” value ([1]; vehicle oleic acid) was 51.6% and the “day 0, percentage based” value ([1]; vehicle polysorbate 80, 55° C.) was 92.1%. The “day 10, percentage based” value ([1]; vehicle polysorbate 80) was 64.5%, the “day 0, percentage based” value ([1]; vehicle propyleneglycol fatty acid ester (Rikemal PO-100V), 250 μg/g solution, 55° C.) was 93.9% and the “day 10, percentage based” value ([1]; vehicle propyleneglycol fatty acid ester (Rikemal PO-100V), 250 μg/g solution) was 92.1%. For the same molecule, the “day 0, percentage based” value ([1]; vehicle soy oil, 250 μg/g solution, 55° C.) was 98.2%, the “day 10, percentage based” value ([1]; vehicle soy oil, 250 μg/g solution) was 94.6% and the “day 0, percentage based” value ([1]; vehicle sugar alcohol solution derived from corn starch, 55° C.) was 3.8%. The “day 10, percentage based” value ([1]; vehicle sugar alcohol solution derived from corn starch) was 5.6%, the “amounts of compound 1 (% vs day 0), Initial” value ([2]; soft gelatin capsule, gelatin 100 / sugar alcohol solution 60, 120 μg/g in medium chain fatty acid triglyceride, 40° C.) was 100 % vs day 0 and the “amounts of compound 1 (% vs day 0), Initial” value ([2]; soft gelatin capsule, gelatin 100 / sugar alcohol solution 60, 120 μg/g in medium chain fatty acid triglyceride, 55° C.) was 100 % vs day 0. For the same molecule, the “amounts of compound 1 (% vs day 0), 1 mo” value ([2]; soft gelatin capsule, gelatin 100 / sugar alcohol solution 60, 120 μg/g in medium chain fatty acid triglyceride, stored at 40° C., 1 mo) was 99.8 % vs day 0, the “amounts of compound 1 (% vs day 0), 3 mo” value ([2]; soft gelatin capsule, gelatin 100 / sugar alcohol solution 60, 120 μg/g in medium chain fatty acid triglyceride, stored at 40° C., 3 mo) was 98.0 % vs day 0 and the “amounts of compound 1 (% vs day 0), 6 mo” value ([2]; soft gelatin capsule, gelatin 100 / sugar alcohol solution 60, 120 μg/g in medium chain fatty acid triglyceride, stored at 40° C., 6 mo) was 98.8 % vs day 0. The “amounts of compound 1 (% vs day 0), 1 w” value ([2]; soft gelatin capsule, gelatin 100 / sugar alcohol solution 60, 120 μg/g in medium chain fatty acid triglyceride, stored at 55° C., 1 w) was 100.2 % vs day 0, the “amounts of compound 1 (% vs day 0), 2 w” value ([2]; soft gelatin capsule, gelatin 100 / sugar alcohol solution 60, 120 μg/g in medium chain fatty acid triglyceride, stored at 55° C., 2 w) was 100.1 % vs day 0 and the “amounts of compound 1 (% vs day 0), 4 w” value ([2]; soft gelatin capsule, gelatin 100 / sugar alcohol solution 60, 120 μg/g in medium chain fatty acid triglyceride, stored at 55° C., 4 w) was 99.5 % vs day 0. For the same molecule, the “effect of sugar alcohol solution/polyol on stability when used as plasticizer” value ([2]; sugar alcohol solution/polyol used as plasticizer of soft gelatin capsule shell) was “will not affect the stability”.
